This note sets out measurements from patent US5726195A, “Aminoacyl adenylate mimics as novel antimicrobial and antiparasitic agents” (Cubist Pharmaceuticals, Inc., priority 1996, dated 1998).

Assay [1] has as its target E. Coli. IleRS (isoleucyl-tRNA synthetase) (Escherichia coli, UniProt P00956). Nature of the assay: Inhibition of isoleucyl-tRNA synthetase (aminoacylation of tRNA with [3H]isoleucine). The following applies: E. coli enzyme; irreversible inhibitors: values are 50% of the active enzyme concentration; read-out: IC50 E.Coli. IleRS. Type of assay: biochemical. Here is the method: The extent of aminoacylation of tRNA with isoleucine catalyzed by isoleucyl-tRNA synthetase enzyme was measured by monitoring the incorporation of [3H] isoleucine into trichloroacetic acid-precipitable tRNA in the presence of a compound of Formula I, as compared with activity in the absence of inhibitor. The isoleucyl-tRNA synthetase enzymes are well known in the prior art and can be obtained and purified by known methods (for example see: D. Kern et at., Biochimie, 61, 1257-1272 (1979) and J. Gilbart et al., Antimicrobial Agents and Chemotherapy, 37 (1), 32-38 (1993)).
Isoleucyl-tRNA synthetase enzyme (0.08-2.0 nM, preferably, 0.4 nM) was first pre-incubated at 25° C. with 0.05 mg/ml bovine serum albumin, 10 mM DTT, 2.5% dimethyl sulfoxide, with or without a compound of Formula I, for 20 minutes. At this point a substrate solution (a solution containing the following: ATP, [^3 H]isoleucine, tRNA, HEPES, magnesium chloride, and potassium chloride) was added to give a final concentration of 0.0286 mg/ml bovine serum albumin, 5.7 mM DTT, 4 mM ATP, 5-20 μM [^3 H] isoleucine (1-15 Ci/mmol), 90 μM crude tRNA or 2 μM isoleucine specific tRNA, 1.4% dimethyl sulfoxide, 30 mM HEPES (pH 7.5), 10 mM magnesium chloride, and 50 mM potassium chloride and incubated at 25° C. Aliquots were removed at selected times (e.g. 5, 10, 20 minutes) and applied to 3MM filter paper discs (Whatman) and then dropped into 5% (wt/vol) trichloroacetic acid for >5 minutes. Filters were washed for three 10-minute periods in 5% trichloroacetic acid, rinsed in 95% ethanol and diethyl ether, and radioactivity was measured with Betafluor™ (National Diagnostics) by liquid scintillation counting.
Inhibitor activity is reported in Table II as an IC50 value (inhibitor concentration causing 50% inhibition of enzyme activity) per a known amount of active enzyme. In the case of irreversible inhibitors (1:1 stoichiometry) these values are 50% of the active enzyme concentration. The IC50 (in nM, E. coli) values of representative compounds of the present invention are listed in the second column of Table II.

In a further assay the test system is B. subtilis ATCC 6633. Nature of the assay: Whole cell antimicrobial screen, MIC. Type of assay: cell-based. The following applies: Bacillus subtilis, ATCC6633. Here is the method:
(§1) Compounds were tested for antimicrobial activity against a panel of organisms according to standard procedures described by the National Committee for Clinical Laboratory Standards (NCCLS document M7-A3, Vol. 13, No. 25, 1993/NCCLS document M27-P, Vol. 12, No. 25, 1992). Compounds were dissolved in 100% dimethyl sulfoxide and were diluted to the final reaction concentration (0.1 μg/mL-500 μg/mL) in microbial growth media. In al cases the final concentration of dimethyl sulfoxide incubated with cells is less than or equal to 1%. For minimum inhibitory concentration (MIC) calculations, 2-fold dilutions of compounds were added to wells of a microtiter plate containing 5×10^4 bacteria or fungal cells in a final volume of 100 lambda of an appropriate media (Mueller-Hinton Broth; Haemophilus Test Media; Mueller-Hinton Broth+5% Sheep Blood; or […]). Plates were incubated overnight at an appropriate temperature (30° C.-37° C.) and optical densities (measure of cell growth) were measured using a commercial plate reader. The MIC value is defined as the lowest compound concentration inhibiting growth of the test organism.

The next assay deals with C. albicans ATCC 10231. Nature of the assay: Whole cell antimicrobial screen, MIC. Type of assay: cell-based. As to conditions: Candida albicans, ATCC10231. The method, then: as §1
In a further assay the test system is E. faecalis ATCC 33011. Nature of the assay: Whole cell antimicrobial screen, MIC. Type of assay: cell-based. As to conditions: Enterococcus faecalis, ATCC33011. Here is the method: as §1
For the next assay, the system named is E. faecium ATCC 6569. Nature of the assay: Whole cell antimicrobial screen, MIC. It is filed as cell-based. The following applies: Enterococcus faecium, ATCC6569. The method, then:
as §1

The subject of a further assay is K. pneumonia ATCC 4352. Nature of the assay: Whole cell antimicrobial screen, MIC. It is filed as cell-based. The following applies: Klebsiella pneumoniae, ATCC4352. Here is the method: as §1
Assay [2] deals with M. catarrhalis ATCC 25240. Nature of the assay: Whole cell antimicrobial screen, MIC. Type of assay: cell-based. As to conditions: Moraxella catarrhalis, ATCC25240. The method, then: as §1
Another assay relates to S. aureus ATCC 14154. Nature of the assay: Whole cell antimicrobial screen, MIC. It is filed as cell-based. As to conditions: Staphylococcus aureus, ATCC14154. The method, then: as §1
The test system of the next assay is S. aureus ATCC 6538P. Nature of the assay: Whole cell antimicrobial screen, MIC. Type of assay: cell-based. The following applies: Staphylococcus aureus, ATCC6538P. The method, then: as §1
Assay [3] concerns S. epidermidis ATCC 33501. Nature of the assay: Whole cell antimicrobial screen, MIC. Type of assay: cell-based. As to conditions: Staphylococcus epidermidis, ATCC33501. The method, then:
as §1

Assay [4] relates to S. saprophyticus ATCC 35552. Nature of the assay: Whole cell antimicrobial screen, MIC. It is filed as cell-based. As to conditions: Staphylococcus saprophyticus, ATCC35552. Here is the method: as §1
The test system of a further assay is S. pyogenes ATCC 8668. Nature of the assay: Whole cell antimicrobial screen, MIC. It is filed as cell-based. The following applies: Streptococcus pyogenes, ATCC8668. The method, then: as §1
The next assay has as its system S. pneumonia ATCC 49619. Nature of the assay: Whole cell antimicrobial screen, MIC. It is filed as cell-based. Here is the method: as §1

In brackets after ≈: the same amount, converted by molar mass.

Sequence of E. Coli. IleRS (isoleucyl-tRNA synthetase) (P00956 whole entry): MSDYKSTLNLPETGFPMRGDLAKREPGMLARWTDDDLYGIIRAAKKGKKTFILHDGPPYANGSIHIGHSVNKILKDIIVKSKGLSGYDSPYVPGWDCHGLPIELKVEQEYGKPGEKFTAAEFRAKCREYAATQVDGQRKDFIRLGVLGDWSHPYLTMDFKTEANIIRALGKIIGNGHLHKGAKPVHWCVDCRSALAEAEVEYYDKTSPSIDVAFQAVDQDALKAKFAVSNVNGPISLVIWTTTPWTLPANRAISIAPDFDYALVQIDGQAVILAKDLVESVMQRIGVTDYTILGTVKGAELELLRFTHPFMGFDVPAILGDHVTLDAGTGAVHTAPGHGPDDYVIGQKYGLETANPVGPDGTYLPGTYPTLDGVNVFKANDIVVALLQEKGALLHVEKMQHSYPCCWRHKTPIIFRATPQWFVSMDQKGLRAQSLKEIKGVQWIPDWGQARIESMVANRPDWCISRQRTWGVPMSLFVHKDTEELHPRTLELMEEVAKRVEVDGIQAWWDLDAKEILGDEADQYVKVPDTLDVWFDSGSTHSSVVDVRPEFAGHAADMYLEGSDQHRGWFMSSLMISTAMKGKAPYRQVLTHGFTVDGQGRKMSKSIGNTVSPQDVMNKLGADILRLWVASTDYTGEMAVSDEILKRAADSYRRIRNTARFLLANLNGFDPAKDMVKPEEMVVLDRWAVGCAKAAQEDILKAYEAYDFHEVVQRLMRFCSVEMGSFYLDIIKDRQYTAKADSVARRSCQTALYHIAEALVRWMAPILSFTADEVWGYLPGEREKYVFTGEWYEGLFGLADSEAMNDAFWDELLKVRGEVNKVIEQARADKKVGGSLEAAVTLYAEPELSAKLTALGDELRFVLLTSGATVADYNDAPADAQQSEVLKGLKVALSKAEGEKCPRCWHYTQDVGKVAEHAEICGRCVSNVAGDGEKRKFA

A word on the IC50: it is the concentration that inhibits the measured activity by half. One may read the MIC as the lowest concentration that inhibits growth of the organism. High values mean a less susceptible organism, low ones a more susceptible organism. For `CC[C@H](C)[C@H](N)C(=O)NS(=O)(=O)OC[C@H]1O[C@@H](CCn2nnc(-c3ccc(-c4ccccc4C)cc3)n2)[C@H](O)[C@@H]1O` [XIX], in [1], the 50% inhibitory concentration (IC50) came to 5.3 nM. Moreover, the MIC was determined as 50 µg/mL (≈ 84.9 µM) against B. subtilis ATCC 6633; 500 µg/mL (≈ 849 µM) against C. albicans ATCC 10231; 300 µg/mL (≈ 510 µM) with E. faecalis ATCC 33011; 200 µg/mL (≈ 340 µM) with E. faecium ATCC 6569; 100 µg/mL (≈ 170 µM) in the assay on K. pneumonia ATCC 4352; 50 µg/mL (≈ 84.9 µM) in [2]. The minimal inhibitory concentration (MIC) in the assay with S. aureus ATCC 14154 was 50 µg/mL (≈ 84.9 µM); against S. aureus ATCC 6538P, 50 µg/mL (≈ 84.9 µM); in assay [3], 5 µg/mL (≈ 8.49 µM); in assay [4], 25 µg/mL (≈ 42.5 µM).
On to `CC[C@H](C)[C@H](N)C(=O)NS(=O)(=O)OC[C@H]1O[C@@H](CCn2nnc(-c3ccc(C#Cc4ccccc4)cc3)n2)[C@H](O)[C@@H]1O` [IV], for which the IC50 in [1] was determined as 4.5 nM. For the same compound, the MIC was 25 µg/mL (≈ 41.8 µM) in the assay on B. subtilis ATCC 6633; greater than 200 µg/mL in the assay with C. albicans ATCC 10231; greater than 500 µg/mL against E. faecalis ATCC 33011; greater than 500 µg/mL against E. faecium ATCC 6569; 50 µg/mL (≈ 83.5 µM) against K. pneumonia ATCC 4352; 5 µg/mL (≈ 8.35 µM) in assay [2]. Moreover, the MIC against S. aureus ATCC 14154 came to 100 µg/mL (≈ 167 µM); against S. aureus ATCC 6538P, 10 µg/mL (≈ 16.7 µM); in assay [3] it was 2 µg/mL (≈ 3.34 µM); in assay [4], 10 µg/mL (≈ 16.7 µM).
As to `CC[C@H](C)[C@H](N)C(=O)NS(=O)(=O)OC[C@H]1O[C@@H](CCn2nnc(-c3ccc(C(=O)OCc4ccccc4)cc3)n2)[C@H](O)[C@@H]1O` [VI], the concentration for half-maximal inhibition (IC50) in [1] worked out at 7.5 nM. Also, the MIC against C. albicans ATCC 10231 was greater than 500 µg/mL; in the assay with E. faecalis ATCC 33011, greater than 500 µg/mL; in the assay on E. faecium ATCC 6569 it was 100 µg/mL (≈ 158 µM); in the assay on S. aureus ATCC 14154, 50 µg/mL (≈ 79 µM); in the assay on S. aureus ATCC 6538P, 25 µg/mL (≈ 39.5 µM); in assay [3], 5 µg/mL (≈ 7.9 µM). Besides, the MIC against S. pyogenes ATCC 8668 is greater than 5 µg/mL; in [4], 25 µg/mL (≈ 39.5 µM).
`CC[C@H](C)[C@H](N)C(=O)NS(=O)(=O)OC[C@H]1O[C@@H](CCn2nnc(N3CCN(c4ccccc4)CC3)n2)[C@H](O)[C@@H]1O` [XXIV]: the IC50 in assay [1] worked out at 1.3 nM. In addition, the minimal inhibitory concentration (MIC) is 400 µg/mL (≈ 686 µM) in the assay on B. subtilis ATCC 6633; 500 µg/mL (≈ 858 µM) against C. albicans ATCC 10231; greater than 400 µg/mL against E. faecalis ATCC 33011; 400 µg/mL (≈ 686 µM) in the assay with E. faecium ATCC 6569; 400 µg/mL (≈ 686 µM) against K. pneumonia ATCC 4352; 400 µg/mL (≈ 686 µM) in assay [2]. In addition, the MIC was greater than 400 µg/mL against S. aureus ATCC 14154, 400 µg/mL (≈ 686 µM) in the assay with S. aureus ATCC 6538P, 50 µg/mL (≈ 85.8 µM) in assay [3] and 400 µg/mL (≈ 686 µM) in assay [4].
Turning to `CC[C@H](C)[C@H](N)C(=O)NS(=O)(=O)OC[C@H]1O[C@@H](CCn2nnc(-c3ccc(C#Cc4ccc([N+](=O)[O-])o4)cc3)n2)[C@H](O)[C@@H]1O` [II, [S-(R*,R*)]-3,6-anhydro-1,2-dideoxy-1-[5-[4-[(5-nitro-2-furyl)ethynyl]phenyl]-2H-tetrazol-2-yl]-D-allo-heptitol 7-(2-amino-3-methyl-1-oxopentyl)sulfamate], the IC50 in assay [1] is 1 nM. Further, the MIC against C. albicans ATCC 10231 is 100 µg/mL (≈ 158 µM); against E. faecalis ATCC 33011, 256 µg/mL (≈ 404 µM); against E. faecium ATCC 6569, 64 µg/mL (≈ 101 µM); against S. aureus ATCC 14154, 8 µg/mL (≈ 12.6 µM); in the assay with S. aureus ATCC 6538P, 4 µg/mL (≈ 6.31 µM); in assay [3] it was 1 µg/mL (≈ 1.58 µM). Moreover, the MIC in the assay on S. pneumonia ATCC 49619 was determined as 16 µg/mL (≈ 25.3 µM); with S. pyogenes ATCC 8668 it was 16 µg/mL (≈ 25.3 µM); in assay [4], 8 µg/mL (≈ 12.6 µM).
`CC[C@H](C)[C@H](N)C(=O)NS(=O)(=O)OC[C@H]1O[C@@H](CCn2nnc(-c3ccc(-c4ccccc4)cc3C)n2)[C@H](O)[C@@H]1O` [XXI]: the IC50 in [1] stood at 0.5 nM. Further, the MIC against B. subtilis ATCC 6633 was 100 µg/mL (≈ 170 µM); against E. faecalis ATCC 33011, greater than 500 µg/mL; in the assay on E. faecium ATCC 6569 it was 500 µg/mL (≈ 849 µM); against K. pneumonia ATCC 4352 it was 100 µg/mL (≈ 170 µM); in assay [2], less than 50 µg/mL; in the assay with S. aureus ATCC 14154, 500 µg/mL (≈ 849 µM). For the same compound, the minimum inhibitory concentration (MIC) in the assay with S. aureus ATCC 6538P was determined as 100 µg/mL (≈ 170 µM); in [3], 50 µg/mL (≈ 84.9 µM); in assay [4] it was 50 µg/mL (≈ 84.9 µM).
Regarding `CC[C@H](C)[C@H](N)C(=O)NS(=O)(=O)OC[C@H]1O[C@@H](CCn2nnc(-c3ccc(OCc4ccc([N+](=O)[O-])s4)cc3)n2)[C@H](O)[C@@H]1O` [XVIII], in assay [1], the half-inhibitory concentration (IC50) was 0.6 nM. Also, the MIC against C. albicans ATCC 10231 is 100 µg/mL (≈ 153 µM); in the assay on E. faecalis ATCC 33011, greater than 500 µg/mL; in the assay with E. faecium ATCC 6569 it was greater than 500 µg/mL; in the assay on S. aureus ATCC 14154, 25 µg/mL (≈ 38.1 µM); with S. aureus ATCC 6538P, 5 µg/mL (≈ 7.63 µM); in assay [3], 5 µg/mL (≈ 7.63 µM). Besides, the minimal inhibitory concentration (MIC) in the assay on S. pyogenes ATCC 8668 is 2 µg/mL (≈ 3.05 µM); in assay [4] it was 5 µg/mL (≈ 7.63 µM).
